Assay results from patent US20240336601A1 (Chulalongkorn University, priority 2020, published 2024).

Legend:
[1] = biological target: interaction between PD-1 and PD-L1 (Homo sapiens, UniProt Q9NZQ7); test: PD-1/PD-L1 protein-protein interaction assay (ALPHA); type: binding; details: 2 nM His-tagged human PD-L1, 0.6 nM PD-1-Fc, AlphaScreen
[2] = biological target: T1, PD-1/PD-L1 interaction (Homo sapiens, UniProt Q9NZQ7); test: PD-1/PD-L1 blockage cell-based bioassay (Jurkat NFAT luciferase / CHO-PDL1 co-culture); details: Jurkat NFAT cells co-cultured with CHO-PDL1 cells, 6 h, luminescence
T1 construct: expressed in transfected cells
T1 sequence (Q9NZQ7 19-290): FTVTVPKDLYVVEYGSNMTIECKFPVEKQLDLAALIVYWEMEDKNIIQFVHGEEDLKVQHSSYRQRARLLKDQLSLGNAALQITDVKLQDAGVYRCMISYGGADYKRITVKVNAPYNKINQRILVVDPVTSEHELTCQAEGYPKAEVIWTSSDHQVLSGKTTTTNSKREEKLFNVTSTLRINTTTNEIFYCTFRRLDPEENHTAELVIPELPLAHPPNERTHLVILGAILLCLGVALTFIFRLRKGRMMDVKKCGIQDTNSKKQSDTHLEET

Chain of interaction between PD-1 and PD-L1 (Q9NZQ7 19-238 limits assumed): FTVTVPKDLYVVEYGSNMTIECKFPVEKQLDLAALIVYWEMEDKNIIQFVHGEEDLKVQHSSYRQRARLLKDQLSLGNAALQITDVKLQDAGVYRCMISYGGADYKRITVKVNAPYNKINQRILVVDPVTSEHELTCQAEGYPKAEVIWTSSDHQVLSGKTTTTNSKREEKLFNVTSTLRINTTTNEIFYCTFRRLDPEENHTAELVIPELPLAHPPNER

## COc1cc(-n2ncc3c(-c4cccc(-c5ccc(CNC[C@@H](C)O)c(OC)n5)c4Cl)cccc32)cc(OC)c1CNC[C@@H](C)O [Example 127, (R)-1-(((6-(2-chloro-3-(1-(4-((((R)-2-hydroxypropyl)amino)methyl)-3,5-dimethoxyphenyl)-1H-indazol-4-yl)phenyl)-2-methoxypyridin-3-yl)methyl)amino)propan-2-ol]
[1]
  IC50: < 1 nM
[2]
  IC50: < 200 nM

## COc1cc(-c2cccc(-c3cccc4c3cnn4-c3cc(OC)c(CN4CC[C@@H](O)C4)c(OC)c3)c2Cl)cc(F)c1CN(C)C12CCC(C(=O)O)(CC1)CC2 [Example 164, (R)-4-(((2′-chloro-3-fluoro-β′-(1-(4-((3-hydroxypyrrolidin-1-yl)methyl)-3,5-dimethoxyphenyl)-1H-indazol-4-yl)-5-methoxy-[1,1′-biphenyl]-4-yl)methyl)(methyl)amino)bicyclo[2.2.2]octane-1-carboxylic acid]
[1]
  IC50: < 1 nM
[2]
  IC50: < 200 nM

## COc1cc(-n2ncc3c(-c4cccc(-c5ccc(CN[C@H]6C[C@@H](O)C6)c(OC)n5)c4Cl)cccc32)cc(OC)c1CNCC(C)(C)C(N)=O [Example 109, 3-((4-(4-(2-chloro-3-(5-(((cis-3-hydroxycyclobutyl)amino)methyl)-6-methoxypyridin-2-yl)phenyl)-1H-indazol-1-yl)-2,6-dimethoxybenzyl)amino)-2,2-dimethylpropanamide]
[1]
  IC50: 1 to 10 nM
[2]
  IC50: < 200 nM

## COc1cc(-n2ccc3c(-c4cccc(-c5ccc(CNC[C@@H]6CCC(=O)N6)c(OC)n5)c4Cl)cccc32)cc(OC)c1CN1CC(C)(O)C1 [Example 53]
[1]
  IC50: < 1 nM
[2]
  IC50: 201 to 2000 nM

## COc1cc(-n2ccc3c(-c4cccc(-c5ccc(CNCC6CNC6)c(OC)n5)c4Cl)cccc32)cc(OC)c1CNC[C@@H]1CCC(=O)N1 [Example 33]
[1]
  IC50: 10 to 100 nM
[2]
  IC50: > 2000 nM

## COc1cc(-n2ncc3c(-c4cccc(-c5ccc(CN[C@H]6C[C@@H](O)C6)c(OC)n5)c4Cl)cccc32)ncc1CN1CC(C)(O)C1 [Example 124, 1-((6-(4-(2-chloro-(5-(((cis-3-hydroxycyclobutyl)amino)methyl)-6-methoxypyridin-2-yl)phenyl)-1H-indazol-1-yl)-4-methoxypyridin-3-yl)methyl)-3-methylazetidin-3-ol]
[1]
  IC50: < 1 nM
[2]
  IC50: 201 to 2000 nM

## COc1cc(-n2ccc3c(-c4cccc(-c5ccc(CNC[C@@H]6CCC(=O)N6)c(OC)n5)c4Cl)cccc32)cc(OC)c1CNCC(C)(C)C(=O)O [Example 42]
[1]
  IC50: < 1 nM
[2]
  IC50: < 200 nM

## COc1cc(-n2ncc3c(-c4cccc(-c5ccc(CN6CC7(CNC(=O)C7)C6)c(OC)n5)c4Cl)cccc32)cc(OC)c1CNCCO [Example 128, 2-((6-(2-chloro-3-(1-(4-(((2-hydroxyethyl)amino)methyl)-3,5-dimethoxyphenyl)-1H-indazol-4-yl)phenyl)-2-methoxypyridin-3-yl)methyl)-2,6-diazaspiro[3.4]octan-7-one]
[1]
  IC50: < 1 nM
[2]
  IC50: < 200 nM

## COc1cc(-n2ncc3c(-c4cccc(-c5nc6cc(CN7CC[C@@H](C(=O)O)C7)cc(C#N)c6o5)c4C)cccc32)cc(OC)c1CN1CC[C@@H](O)C1 [Example 154, (R)-1-((7-cyano-2-(3-(1-(4-(((R)-3-hydroxypyrrolidin-1-yl)methyl)-3,5-dimethoxyphenyl)-1H-indazol-4-yl)-2-methylphenyl)benzo[d]oxazol-5-yl)methyl)pyrrolidine-3-carboxylic acid]
[1]
  IC50: < 1 nM
[2]
  IC50: < 200 nM

## COc1cc(-n2ncc3c(-c4cccc(-c5ccc(CN6CC7(CNC(=O)C7)C6)c(OC)n5)c4Cl)cccc32)ncc1CNCCO [Example 132, 2-((6-(2-chloro-3-(1-(5-(((2-hydroxyethyl)amino)methyl)-4-methoxypyridin-2-yl)-1H-indazol-4-yl)phenyl)-2-methoxypyridin-3-yl)methyl)-2,6-diazaspiro[3.4]octan-7-one]
[1]
  IC50: < 1 nM
[2]
  IC50: < 200 nM

## COc1cc(-n2ncc3c(-c4cccc(-c5ccc(CN[C@H]6C[C@@H](O)C6)c(OC)n5)c4Cl)cccc32)cc(OC)c1CNCC1(C(N)=O)CC1 [Example 131, 1-(((4-(4-(2-chloro-3-(5-(((cis-3-hydroxycyclobutyl)amino)methyl)-6-methoxypyridin-2-yl)phenyl)-1H-indazol-1-yl)-2,6-dimethoxybenzyl)amino)methyl)cyclopropane-1-carboxamide]
[1]
  IC50: 1 to 10 nM
[2]
  IC50: 201 to 2000 nM

## COc1cc(-n2ncc3c(-c4cccc(-c5ccc(CNC[C@H]6C[C@@H](O)C6)c(OC)n5)c4Cl)cccc32)cc(OC)c1CNC[C@@H]1CCC(=O)N1 [Example 55]
[1]
  IC50: 1 to 10 nM
[2]
  IC50: 201 to 2000 nM

## COc1cc(-n2ncc3c(-c4cccc(-c5ccc(CN6CC7(CNC(=O)C7)C6)c(OC)n5)c4Cl)cccc32)cc(OC)c1CN1CC(C(=O)O)C1 [Example 150, 1-(4-(4-(2-chloro-3-(6-methoxy-5-((7-oxo-2,6-diazaspiro[3.4]octan-2-yl)methyl)pyridin-2-yl)phenyl)-1H-indazol-1-yl)-2,6-dimethoxybenzyl)azetidine-3-carboxylic acid]
[1]
  IC50: < 1 nM
[2]
  IC50: < 200 nM

## COc1cc(-c2cn(C)c3c(-c4cccc(-c5ccc(CNC[C@@H]6CCC(=O)N6)c(OC)n5)c4Cl)cccc23)cc(OC)c1CNC[C@@H]1CCC(=O)N1 [Example 93, (S)-5-((((6-(2-chloro-3-(3-(3,5-dimethoxy-4-(((((S)-5-oxopyrrolidin-2-yl)methyl)amino)methyl)phenyl)-1-methyl-1H-indol-7-yl)phenyl)-2-methoxypyridin-3-yl)methyl)amino)methyl)pyrrolidin-2-one]
[1]
  IC50: 1 to 10 nM
[2]
  IC50: > 2000 nM

## COc1cc(-n2ccc3c(-c4cccc5c4ccn5-c4cc(OC)c(CNC[C@@H]5CCC(=O)N5)c(OC)c4)cccc32)cc(OC)c1CNC[C@@H]1CCC(=O)N1 [Example 64, (5S,5′S)-5,5′-((((1H,1′H-[4,4′-biindole]-1,1′-diylbis(2,6-dimethoxy-4,1-phenylene))bis(methylene))bis(azanediyl))bis(methylene))bis(pyrrolidin-2-one)]
[1]
  IC50: 1 to 10 nM
[2]
  IC50: > 2000 nM

## COc1cc(-n2ncc3c(-c4cccc(-c5ccc(C6=NCCN6)c(OC)n5)c4Cl)cccc32)cc(OC)c1CN1CC(C)(C(N)=O)C1 [Example 114, 1-(4-(4-(2-chloro-3-(5-(4,5-dihydro-1H-imidazol-2-yl)-6-methoxypyridin-2-yl)phenyl)-1H-indazol-1-yl)-2,6-dimethoxybenzyl)-3-methylazetidine-3-carboxamide]
[1]
  IC50: 1 to 10 nM
[2]
  IC50: 201 to 2000 nM

## COc1cc(-n2ncc3c(-c4cccc(-c5ccc(CN[C@H]6C[C@@H](O)C6)c(OC)n5)c4Cl)cccc32)ncc1CN[C@H]1C[C@@H](O)C1 [Example 106, cis-3-(((6-(2-chloro-3-(1-(5-(((cis-3-hydroxycyclobutyl)amino)methyl)-4-methoxypyridin-2-yl)-1H-indazol-4-yl)phenyl)-2-methoxypyridin-3-yl)methyl)amino)cyclobutanol]
[1]
  IC50: < 1 nM
[2]
  IC50: 201 to 2000 nM

## COc1cc(-n2ncc3c(-c4cccc(-c5ccc(CN[C@H]6C[C@@H](O)C6)c(OC)n5)c4Cl)cccc32)cc(OC)c1CNCCO [Example 125, cis-3-(((6-(2-chloro-3-(1-(4-(((2-hydroxyethyl)amino)methyl)-3,5-dimethoxyphenyl)-1H-indazol-4-yl)phenyl)-2-methoxypyridin-3-yl)methyl)amino)cyclobutanol]
[1]
  IC50: < 1 nM
[2]
  IC50: < 200 nM

## COc1cc(-n2ncc3c(-c4cccc(-c5ccc(CN6CC7(CNC(=O)C7)C6)c(OC)n5)c4Cl)cccc32)cc(OC)c1CN[C@H]1C[C@@H](O)C1 [Example 97, 2-((6-(2-chloro-3-(l-(4-(((cis-3-hydroxycyclobutyl)amino)methyl)-3,5-dimethoxyphenyl)-1H-indazol-4-yl)phenyl)-2-methoxypyridin-3-yl)methyl)-2,6-diazaspiro[3.4]octan-7-one]
[1]
  IC50: < 1 nM
[2]
  IC50: < 200 nM

## COc1cc(-n2ncc3c(-c4cccc(-c5ccc(CNC[C@@H]6CCC(=O)N6)c(OC)n5)c4Cl)cccc32)cc(OC)c1CN1CC(C)(C(=O)NC2CC2)C1 [Example 88, (S)-1-(4-(4-(2-chloro-3-(6-methoxy-5-((((5-oxopyrrolidin-2-yl)methyl)amino)methyl)pyridin-2-yl)phenyl)-1H-indazol-1-yl)-2,6-dimethoxybenzyl)-N-cyclopropyl-3-methylazetidine-3-carboxamide]
[1]
  IC50: 1 to 10 nM
[2]
  IC50: 201 to 2000 nM

## CCOC(=O)[C@@H](NCc1c(OC)cc(-n2ncc3c(-c4cccc(-c5ccc(CN6CC7(CNC(=O)C7)C6)c(OC)n5)c4Cl)cccc32)cc1OC)[C@@H](C)O [Example 145, Ethyl (4-(4-(2-chloro-3-(6-methoxy-5-((7-oxo-2,6-diazaspiro[3.4]octan-2-yl)methyl)pyridin-2-yl)phenyl)-1H-indazol-1-yl)-2,6-dimethoxybenzyl)-L-threoninate]
[1]
  IC50: 1 to 10 nM
[2]
  IC50: 201 to 2000 nM

## COc1cc(-n2ncc3c(-c4cccc(-c5ccc(C6=NCCN6)c(OC)n5)c4Cl)cccc32)cc(OC)c1CNC[C@H]1C[C@@H](O)C1 [Example 77, cis-3-(((4-(4-(2-chloro-3-(5-(4,5-dihydro-1H-imidazol-2-yl)-6-methoxypyridin-2-yl)phenyl)-1H-indazol-1-yl)-2,6-dimethoxybenzyl)amino)methyl)cyclobutanol]
[1]
  IC50: < 1 nM
[2]
  IC50: 201 to 2000 nM

## COc1cc(-n2ncc3c(-c4cccc(-c5ccc(CN6CC7(CCC(=O)N7)C6)c(OC)n5)c4Cl)cccc32)ncc1CNCCO [Example 116, 2-((6-(2-chloro-3-(1-(5-(((2-hydroxyethyl)amino)methyl)-4-methoxypyridin-2-yl)-1H-indazol-4-yl)phenyl)-2-methoxypyridin-3-yl)methyl)-2,5-diazaspiro[3.4]octan-6-one]
[1]
  IC50: < 1 nM
[2]
  IC50: < 200 nM

## COc1cc(-n2ccc3c(-c4cccc(-c5ccc(CN6CC[C@@H](O)C6)c(OC)n5)c4Cl)ccnc32)cc(OC)c1CNC[C@@H]1CCC(=O)N1 [Example 34]
[1]
  IC50: 1 to 10 nM
[2]
  IC50: > 2000 nM
